From ChEMBL document CHEMBL4270667, “Design and Synthesis of Potent HIV-1 Protease Inhibitors Containing Bicyclic Oxazolidinone Scaffold as the P2 Ligands: Structure-Activity Studies and Biological and X-ray Structural Studies” (J Med Chem, 2018)
pIC50, pKi: −log10 of the molar value.

Assays:
[1] = test system: Human immunodeficiency virus 1; assay: Antiviral activity against HIV1 NL4-3 infected in human MT4 cells assessed as reduction in p24 Gag protein production after 7 days by automated chemiluminescent enzyme immunoassay; type: functional, organism-based; conditions: Human immunodeficiency virus 1, NL4-3, MT4, 168 h
[2] = test system: Human immunodeficiency virus 1; assay: Antiviral activity against Atazanavir-resistant HIV1 infected in human MT4 cells assessed as reduction in p24 Gag protein production after 7 days by automated chemiluminescent enzyme immunoassay; type: functional, organism-based; conditions: Human immunodeficiency virus 1, MT4, 168 h
[3] = test system: Human immunodeficiency virus 1; assay: Antiviral activity against lopinavir-resistant HIV1 infected in human MT4 cells assessed as reduction in p24 Gag protein production after 7 days by automated chemiluminescent enzyme immunoassay; type: functional, organism-based; conditions: Human immunodeficiency virus 1, MT4, 168 h
[4] = test system: Human immunodeficiency virus 1; assay: Antiviral activity against amprenavir-resistant HIV1 infected in human MT4 cells assessed as reduction in p24 Gag protein production after 7 days by automated chemiluminescent enzyme immunoassay; type: functional, organism-based; conditions: Human immunodeficiency virus 1, MT4, 168 h
[5] = test system: Human immunodeficiency virus 1; assay: Antiviral activity against darunavir-resistant HIV1 at passage 21 infected in human MT4 cells assessed as reduction in p24 Gag protein production after 7 days by automated chemiluminescent enzyme immunoassay; type: functional, organism-based; conditions: Human immunodeficiency virus 1, MT4, 168 h
[6] = test system: Human immunodeficiency virus 1; assay: Antiviral activity against darunavir-resistant HIV1 at passage 30 infected in human MT4 cells assessed as reduction in p24 Gag protein production after 7 days by automated chemiluminescent enzyme immunoassay; type: functional, organism-based; conditions: Human immunodeficiency virus 1, MT4, 168 h
[7] = test system: Human immunodeficiency virus 1; assay: Antiviral activity against darunavir-resistant HIV1 at passage 51 infected in human MT4 cells assessed as reduction in p24 Gag protein production after 7 days by automated chemiluminescent enzyme immunoassay; type: functional, organism-based; conditions: Human immunodeficiency virus 1, MT4, 168 h
[8] = target: Protease (Human immunodeficiency virus 1, UniProt Q9YQ12); assay: Inhibition of HIV1 wild type NL4-3 protease expressed in Escherichia coli Rosetta (DE3) pLysS using Abz-Thr-Ile-Nle-Phe-(pNO2)-Gln-Arg-NH2 as substrate preincubated for 5 to 10 mins followed by substrate addition measured after 1 hr by fluorescence assay
[9] = test system: MT4; assay: Cytotoxicity against human MT4 cells after 7 days by MTT assay; type: cell-based; conditions: mt4, 168 h
[10] = Selectivity ratio of CC50 for human MT4 cells to IC50 for HIV1 NL4-3 infected in human MT4 cells; type: toxicity, cell-based; conditions: MT4 cells infected with HIV1 NL4-3, read-out: Ratio CC50/IC50

Sequence of Protease (Q9YQ12 whole entry): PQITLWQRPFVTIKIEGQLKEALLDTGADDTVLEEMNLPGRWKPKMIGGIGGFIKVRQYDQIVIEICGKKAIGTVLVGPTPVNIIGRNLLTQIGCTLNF

pIC50 [1]	pKi [8]	SMILES	pIC50 [2]	pIC50 [3]	pIC50 [4]	pIC50 [5]	pIC50 [6]	pIC50 [7]	CC50 [9]	selectivity ratio [10]
7.68		CC(C)(C)NC(=O)[C@@H]1C[C@@H]2CCCC[C@@H]2CN1C[C@@H](O)[C@H](Cc1ccccc1)NC(=O)[C@H](CC(N)=O)NC(=O)c1ccc2ccccc2n1								
6.60	10.10	COc1ccc(S(=O)(=O)N(CC(C)C)C[C@@H](O)[C@H](Cc2ccccc2)NC(=O)O[C@H]2C[C@H]3OC(=O)N(c4ccccc4OC)[C@H]3C2)cc1								
6.36	9.80	COc1ccc(S(=O)(=O)N(CC(C)C)C[C@@H](O)[C@H](Cc2ccccc2)NC(=O)O[C@@H]2C[C@@H]3OC(=O)N(C)[C@@H]3C2)cc1							> 100000 nM	> 229
< 6.00	9.20	COc1ccc(N2C(=O)O[C@@H]3C[C@H](OC(=O)N[C@@H](Cc4ccccc4)[C@H](O)CN(CC(C)C)S(=O)(=O)c4ccc(OC)cc4)C[C@@H]32)cc1								
6.35	9.85	CCCN1C(=O)O[C@@H]2C[C@H](OC(=O)N[C@@H](Cc3ccccc3)[C@H](O)CN(CC(C)C)S(=O)(=O)c3ccc(OC)cc3)C[C@@H]21								
< 6.00	7.03	COc1ccc(S(=O)(=O)N(CC(C)C)C[C@@H](O)[C@H](Cc2ccccc2)NC(=O)O[C@H]2C[C@H]3OC(=O)N(c4cccc(OC)c4)[C@H]3C2)cc1								
< 6.00	9.48	COc1ccc(S(=O)(=O)N(CC(C)C)C[C@@H](O)[C@H](Cc2ccccc2)NC(=O)O[C@H]2C[C@H]3OC(=O)N(c4ccccc4)[C@H]3C2)cc1								
6.43	10.80	C=CCN1C(=O)O[C@@H]2C[C@H](OC(=O)N[C@@H](Cc3ccccc3)[C@H](O)CN(CC(C)C)S(=O)(=O)c3ccc(OC)cc3)C[C@@H]21								
7.08	10.80	COCN1C(=O)O[C@@H]2C[C@H](OC(=O)N[C@@H](Cc3ccccc3)[C@H](O)CN(CC(C)C)S(=O)(=O)c3ccc(OC)cc3)C[C@@H]21								
< 6.00	8.88	COc1ccc(S(=O)(=O)N(CC(C)C)C[C@@H](O)[C@H](Cc2ccccc2)NC(=O)O[C@@H]2C[C@@H]3OC(=O)N[C@@H]3C2)cc1								
7.32	11.92	COc1ccc(S(=O)(=O)N(CC(C)C)C[C@@H](O)[C@H](Cc2ccccc2)NC(=O)O[C@@H]2C[C@@H]3NC(=O)O[C@@H]3C2)cc1							> 100000 nM	> 2070

SMILES	pIC50 [1]	pKi [8]	pIC50 [2]	pIC50 [3]	pIC50 [4]	pIC50 [5]	pIC50 [6]	pIC50 [7]	CC50 [9]	selectivity ratio [10]
CC(C)CN(C[C@@H](O)[C@H](Cc1ccccc1)NC(=O)O[C@H]1CCOC1)S(=O)(=O)c1ccc(N)cc1	6.37		< 6.00	< 6.00	< 6.00	< 6.00	< 6.00	< 6.00		
CC(C)CN(C[C@@H](O)[C@H](Cc1ccccc1)NC(=O)O[C@H]1CO[C@H]2OCC[C@H]21)S(=O)(=O)c1ccc(N)cc1	8.46 to 8.49							< 6.00		
COc1ccc(S(=O)(=O)N(CC(C)C)C[C@@H](O)[C@H](Cc2ccccc2)NC(=O)O[C@H]2C[C@H]3OC(=O)N(CC(C)C)[C@H]3C2)cc1		9.80	7.48	6.21	6.51	< 6.00	< 6.00	< 6.00	> 100000 nM	> 2440
COc1ccc(S(=O)(=O)N(CC(C)C)C[C@@H](O)[C@H](Cc2ccccc2)NC(=O)O[C@H]2C[C@H]3OC(=O)N(C)[C@H]3C2)cc1	7.44	10.52								> 2780
CC(C)CN(C[C@@H](O)[C@H](Cc1ccccc1)NC(=O)O[C@H]1C[C@H]2OC(=O)N(C)[C@H]2C1)S(=O)(=O)c1ccc2nc(NC3CC3)sc2c1	7.55	9.72							43000 nM	1540
C=C(C)CN1C(=O)O[C@@H]2C[C@H](OC(=O)N[C@@H](Cc3ccccc3)[C@H](O)CN(CC(C)C)S(=O)(=O)c3ccc(OC)cc3)C[C@@H]21	7.51 to 7.64	10.40	7.44	< 6.00	6.58	< 6.00	< 6.00	< 6.00	> 100000 nM	> 3230
COC(=O)N[C@H](C(=O)N[C@@H](Cc1ccccc1)[C@@H](O)CN(Cc1ccc(-c2ccccn2)cc1)NC(=O)[C@@H](NC(=O)OC)C(C)(C)C)C(C)(C)C [ATAZANAVIR]	9.05		< 6.00	6.53	8.70	< 6.00	< 6.00	< 6.00		
Cc1cccc(C)c1OCC(=O)N[C@@H](Cc1ccccc1)[C@@H](O)C[C@H](Cc1ccccc1)NC(=O)[C@H](C(C)C)N1CCCNC1=O [LOPINAVIR]	8.22		6.51	< 6.00	6.66	< 6.00	< 6.00	< 6.00		
